Assay results reported in US9676715B2, “Bis-indolic derivatives, a process for preparing the same and their uses as a drug” (UNIVERSITE JOSEPH FOURIER, priority 2011, dated 2017).
In brackets after ≈: the same amount, converted by molar mass.

Tests used:
[1] = test system: S. epidermidis CIP 103627; test: MIC, microdilution method (9.1); format: cell-based, Staphylococcus epidermidis; settings: Staphylococcus epidermidis, CIP103627, read after 18 h, read-out: MIC
In short: (§1)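 Standard CLSI broth microdilution. Test range 0.50-128 mg/L (final), doubling steps.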

S. epidermidis CIP 81.55 = test: MIC, microdilution method (9.1); format: cell-based, Staphylococcus epidermidis; settings: Staphylococcus epidermidis, CIP81, read after 18 h, read-out: MIC
In short: as §1

[2] = test system: S. epidermidis ATCC 12228; test: MIC, microdilution method (9.1); format: cell-based, Staphylococcus epidermidis; settings: Staphylococcus epidermidis, ATCC12228, read after 18 h, read-out: MIC
In short: as §1

[3] = test system: S. aureus ATCC 106414 (VISA); test: MIC, microdilution method (9.1); format: cell-based, Staphylococcus aureus; settings: Staphylococcus aureus, read after 18 h, read-out: MIC
In short: as §1

S. aureus CIP 65.6 = test: MIC, microdilution method (9.1); format: cell-based, Staphylococcus aureus; settings: Staphylococcus aureus, CIP65, read after 18 h, read-out: MIC
In short: as §1

[4] = test system: S. aureus ATCC 33592 (MRSA); test: MIC, microdilution method (9.1); format: cell-based, Staphylococcus aureus; settings: Staphylococcus aureus, read after 18 h, read-out: MIC
In short: as §1

S. aureus ATCC 25923 = test: MIC, microdilution method (9.1); format: cell-based, Staphylococcus aureus; settings: Staphylococcus aureus, ATCC25923, read after 18 h, read-out: MIC
In short: as §1

S. aureus SA-1199B = test: MIC, microdilution method (9.1); format: cell-based, Staphylococcus aureus; settings: Staphylococcus aureus, SA1199B, 18 h
In short: as §1

S. aureus CIP 103428 = test: MIC, microdilution method (9.1); format: cell-based, Staphylococcus aureus; settings: Staphylococcus aureus, CIP103428, read after 18 h, read-out: MIC
In short: as §1

S. aureus ATCC 6538 = test: MIC, microdilution method (9.1); format: cell-based, Staphylococcus aureus; settings: Staphylococcus aureus, ATCC6538, read after 18 h, read-out: MIC
In short: as §1

S. aureus ATCC 9144 = test: MIC, microdilution method (9.1); format: cell-based, Staphylococcus aureus; settings: Staphylococcus aureus, ATCC9144, read after 18 h, read-out: MIC
In short: as §1

[5] = test system: S. aureus CIP 65.25 (MRSA); test: MIC, microdilution method (9.1); format: cell-based, Staphylococcus aureus; settings: Staphylococcus aureus, read after 18 h, read-out: MIC
In short: as §1

S. aureus ATCC 29213 = test: MIC, microdilution method (9.1); format: cell-based, Staphylococcus aureus; settings: Staphylococcus aureus, ATCC29213, read after 18 h, read-out: MIC
In short: as §1

[6] = test system: S. agalactiae (group B) ATCC 12400; test: MIC, microdilution method (9.1); format: cell-based, Streptococcus agalactiae; settings: Streptococcus agalactiae, ATCC12400, 18 h, read-out: MIC
In short: as §1

[7] = test system: S. pyogenes (group A) CIP 104226; test: MIC, microdilution method (9.1); format: cell-based, Streptococcus pyogenes; settings: Streptococcus pyogenes, CIP104226, 18 h, read-out: MIC
In short: as §1

[8] = test system: MRC5 (human lung fibroblast); test: In vitro cytotoxicity; format: cell-based; settings: read-out: % of cellular growth inhibition; for inhibition at 10 µM: 10^−5 M; for inhibition at 1 µM: 10^−6 M
Description: (§2) In vitro cytotoxicity was assayed on three cell lines—KB (human mouth carcinoma), MCR5 (human lung fibroblast) and HCT116 (human colon tumor). Results are presented in table IV as % of cellular growth inhibition in presence of 10^−5 M and 10^−6 M of the tested bis-indolic derivatives.

[9] = test system: KB (human mouth carcinoma); test: In vitro cytotoxicity; format: cell-based; settings: read-out: % of cellular growth inhibition; for inhibition at 10 µM: 10^−5 M; for inhibition at 1 µM: 10^−6 M
Description: as §2

[10] = test system: HCT116 (human colon tumor); test: In vitro cytotoxicity; format: cell-based; settings: read-out: % of cellular growth inhibition; for inhibition at 10 µM: HCT-116, 10^−5 M; for inhibition at 1 µM: HCT-116, 10^−6 M
Description: as §2

[11] = test system: Bacillus subtilis CIP 5262; test: MIC, microdilution method (9.1); format: cell-based; settings: CIP5262, 18 h, read-out: MIC
In short: as §1

[12] = test system: Haemophilus influenzae ATCC 49766; test: MIC, microdilution method (9.1); format: cell-based; settings: ATCC49766; Haemophilus influenzae ATCC 49766; 10% sheep blood, 5% CO2; 18 h; read-out: MIC
In short: (§3)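 Broth microdilution per CLSI M07-A8 in Mueller Hinton broth, final inoculum 5×10^5 CFU/ml. Indolic compounds tested as two-fold serial dilutions, 0.50-128 mg/L final. Plates incubated at 37° C. in ambient air; fastidious species received 10% sheep blood and 5% CO2.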

[13] = test system: Klebsiella pneumoniae API ATCC 35657; test: MIC, microdilution method (9.1); format: cell-based; settings: ATCC35657, 18 h, read-out: MIC
In short: as §1

[14] = test system: Pseudomonas aeruginosa CIP 5933; test: MIC, microdilution method (9.1); format: cell-based; settings: CIP5933, 18 h, read-out: MIC
In short: as §1

[15] = test system: Serratia marcescens CIP 103551; test: MIC, microdilution method (9.1); format: cell-based; settings: CIP103551, 18 h
In short: as §1

[16] = test system: Escherichia coli ATCC 25922; test: MIC, microdilution method (9.1); format: cell-based; settings: ATCC25922, 18 h
In short: as §1

[17] = test system: Listeria innocua CIP 80.11; test: MIC, microdilution method (9.1); format: cell-based; settings: CIP80, 18 h, read-out: MIC
In short: as §1

[18] = test system: Acinetobacter baumanii ATCC 19606; test: MIC, microdilution method (9.1); format: cell-based; settings: Acinetobacter baumannii, ATCC19606, 18 h, read-out: MIC
In short: as §1

[19] = test system: Enterobacter cloacae ATCC13047; test: MIC, microdilution method (9.1); format: cell-based; settings: 18 h
In short: as §1

S. pneumoniae ATCC 49619 = test: MIC, microdilution method (9.1); format: cell-based; settings: Streptococcus pneumoniae, ATCC49619, 10% sheep blood, 5% CO2, 18 h
In short: as §3

Row | SMILES | MIC [1] [µg/mL] | MIC (S. epidermidis CIP 81.55) [µg/mL] | MIC [2] [µg/mL] | MIC [3] [µg/mL] | MIC (S. aureus CIP 65.6) [µg/mL] | MIC [4] [µg/mL] | MIC (S. aureus ATCC 25923) [µg/mL] | MIC (S. aureus SA-1199B) [µg/mL] | MIC (S. aureus CIP 103428) [µg/mL] | MIC (S. aureus ATCC 6538) [µg/mL] | MIC (S. aureus ATCC 9144) [µg/mL] | MIC [5] [µg/mL] | MIC (S. aureus ATCC 29213) [µg/mL] | MIC [6] [µg/mL] | MIC [13] [µg/mL] | MIC [14] [µg/mL] | MIC [15] [µg/mL] | MIC [16] [µg/mL] | MIC [18] [µg/mL] | MIC [19] [µg/mL] | also measured
1 | CC(C)(C)OC(=O)NCC(NC(=O)c1c[nH]c2ccc(Br)cc12)c1c[nH]c2ccc(Br)cc12 (stereo not drawn) [Compound 3f, tert-Butyl(2-(5-bromo-1H-indol-3-yl)-2-(5-bromo-1H-indolyl-3-carboxamido)ethyl)carbamate] | 1 (≈ 1.74 µM) | 2 (≈ 3.47 µM) | 1 (≈ 1.74 µM) | 2 (≈ 3.47 µM) | 1 (≈ 1.74 µM) | 2 (≈ 3.47 µM) | 1 (≈ 1.74 µM) | 2 (≈ 3.47 µM) | 1 (≈ 1.74 µM) | 1 (≈ 1.74 µM) | 1 (≈ 1.74 µM) | 2 (≈ 3.47 µM) | 1 (≈ 1.74 µM) | 32 (≈ 55.5 µM) | > 128 | > 128 | > 128 | > 128 | > 128 | > 128 | MIC [7]: 32 µg/mL (≈ 55.5 µM); inhibition at 10 µM [8]: 91 ± 10%; inhibition at 1 µM [8]: 0%; inhibition at 10 µM [9]: 97 ± 1%; inhibition at 1 µM [9]: 0%; inhibition at 10 µM [10]: 89 ± 9%; inhibition at 1 µM [10]: 0%; MIC [11]: 32 µg/mL (≈ 55.5 µM); MIC [12]: 32 µg/mL (≈ 55.5 µM); MIC [17]: > 128 µg/mL; MIC (S. pneumoniae ATCC 49619): 32 µg/mL (≈ 55.5 µM)
2 | CC(NC(=O)c1c[nH]c2ccc(Br)cc12)c1c[nH]c2ccc(Br)cc12 (stereo not drawn) [Compound 4, 5-Bromo-N-(1-(5-bromo-1H-indol-3-yl)ethyl)-1H-indole-3-carboxamide] | 4 (≈ 8.67 µM) | 2 (≈ 4.34 µM) | 2 (≈ 4.34 µM) | 2 (≈ 4.34 µM) | 2 (≈ 4.34 µM) | 2 (≈ 4.34 µM) | 2 (≈ 4.34 µM) | 2 (≈ 4.34 µM) | 2 (≈ 4.34 µM) | 2 (≈ 4.34 µM) | 2 (≈ 4.34 µM) | 2 (≈ 4.34 µM) | 2 (≈ 4.34 µM) |  | > 128 | > 128 | > 128 | > 128 | > 128 | > 128 | inhibition at 10 µM [8]: 36 ± 4%; inhibition at 1 µM [8]: 7%; inhibition at 10 µM [9]: 13 ± 3%; inhibition at 1 µM [9]: 0%; inhibition at 10 µM [10]: 12 ± 1%; inhibition at 1 µM [10]: 0%
3 | Cn1cc(C(=O)NC(CNC(=O)OC(C)(C)C)c2c[nH]c3ccc(Br)cc23)c2cc(Br)ccc21 (stereo not drawn) [Compound 7, tert-Butyl (2-(5-bromo-1-methyl-1H-indole-3-carboxamido)-2-(5-bromo-1H-indol-3-yl)ethyl) carbamate] | > 128 | > 128 | > 128 | > 128 | > 128 | > 128 | > 128 | > 128 | > 128 | > 128 | > 128 | > 128 | > 128 | > 128 | > 128 | > 128 | > 128 | > 128 | > 128 | > 128 | MIC [7]: > 128 µg/mL; inhibition at 10 µM [8]: 23 ± 6%; inhibition at 1 µM [8]: 12%; inhibition at 10 µM [9]: 52 ± 2%; inhibition at 1 µM [9]: 2%; inhibition at 10 µM [10]: 35 ± 3%; inhibition at 1 µM [10]: 8%; MIC [11]: > 128 µg/mL; MIC [12]: > 128 µg/mL; MIC [17]: > 128 µg/mL; MIC (S. pneumoniae ATCC 49619): > 128 µg/mL
4 | NCCCCNC(=O)C(NC(=O)c1c[nH]c2ccc(Br)cc12)c1c[nH]c2ccc(Br)cc12 (stereo not drawn) [Compound 16, N-(2-((4-Aminobutyl)amino)-1-(5-bromo-1H-indol-3-yl)-2-oxoethyl)-5-bromo-1H-indole-3-carboxamide] | 8 (≈ 14.3 µM) | 8 (≈ 14.3 µM) | 8 (≈ 14.3 µM) | 8 (≈ 14.3 µM) | 8 (≈ 14.3 µM) | 8 (≈ 14.3 µM) | 8 (≈ 14.3 µM) |  | 8 (≈ 14.3 µM) | 8 (≈ 14.3 µM) | 8 (≈ 14.3 µM) | 8 (≈ 14.3 µM) | 8 (≈ 14.3 µM) | > 128 | > 32 | 32 (≈ 57 µM) | > 32 | 16 (≈ 28.5 µM) | > 32 | 16 (≈ 28.5 µM) | MIC [7]: > 128 µg/mL; MIC [11]: > 128 µg/mL; MIC [12]: > 128 µg/mL; MIC [17]: > 128 µg/mL; MIC (S. pneumoniae ATCC 49619): > 128 µg/mL
